{"source": "patent US11613538B2", "about": "“Method of inhibiting or reducing a viral infection” (PTC Therapeutics, Inc., priority 2009, dated 2023)", "key": {"HT1080 xenografts": {"test_system": "HT1080 xenografts", "test": "HT1080 xenograft tumor growth in male athymic nude mice", "assay_type": "in vivo", "excerpt": "Experimental Design. HT1080 cells (5×10^6 cells/mouse) were implanted subcutaneously in male athymic nude mice. […] For comparison, Compound #10 was included in this study."}, "[1]": {"test": "Bioavailability in vivo of aqueous suspension", "conditions": "in words", "excerpt": "It is anticipated that Compound 1205 can be clinically administered via a solid-dosage form. For all the studies outlined herein, Compound 1205 was lyophilized prior to formulation to minimize batch-to-batch variations in particle-size."}, "[2]": {"test_system": "hypoxia-induced VEGF production in HeLa cells", "test": "cells", "assay_type": "cell-based, human"}, "HT1080 cells": {"test_system": "HT1080 cells", "test": "Cell cycle analysis of HT1080 cells (propidium iodide, flow cytometry)", "assay_type": "cell-based, human", "conditions": "10 nM, 18 hours, normoxic conditions; in words", "experimental": "During the in vitro evaluation of Compound 1205 effects on VEGF expression, an examination of its actions on tumor cell cycling was performed. HT1080 cells were incubated under normoxic conditions (21% oxygen) for 18 hours with vehicle (0.5% DMSO) alone, or with 10 nM of Compound 1205. After treatment, cells were trypsinized, and stained with propidium iodide (PI) dye to measure DNA content of individual cells by flow cytometry. Output comprised histograms showing relative DNA content in 10,000 cells."}, "human VEGF": {"test_system": "human VEGF", "test": "Intra-tumor and plasma human VEGF in HT1080 xenograft mice (ELISA)", "assay_type": "in vivo", "conditions": "for Mean difference in human plasma VEGF (%) on Day 14 / Mean difference in human tumor VEGF (%) at Day 14: 14 days", "excerpt": "Human HT1080 cells (5×10^6 cells/mice) were implanted subcutaneously into male athymic nude mice. Human HT1080 cells constitutively produce human VEGF. Treatment with vehicle alone or Compound 1205 was initiated when the median tumor volume was approximately 311±88 mm^3. Table 3 and Table 4 provide the study design for assessing tumor and pathological plasma VEGF concentrations—each group in each study included eight (8) mice. When the tumors in vehicle-treated mice had reached the target size of about 1200 mm^3 for study #21 and about 1500 mm^3 for study #23, all mice in the study were sacrificed, and excised tumors were homogenized in buffer containing protease inhibitors. Both intra-tumor and plasma human VEGF levels were measured using an ELISA that recognizes human VEGF121 and VEGF165. Intra-tumor VEGF levels were normalized to the total tumor protein concentration and plasma VEGF levels were expressed in pg/mL. Because smaller tumors produce less VEGF per mg of tumor protein, intra-tumor VEGF levels were normalized to tumor size."}, "murine kidney VEGF": {"test_system": "murine kidney VEGF", "test": "Mouse kidney VEGF levels in tumor-bearing mice", "assay_type": "in vivo", "conditions": "0.5 mg/kg (28 days) or 3 mg/kg (32 days); in words", "experimental": "After mouse tumors reached 1500 mm^3, mice were sacrificed and tissues were collected at the time of necropsy, homogenized, and analyzed. On average, mice treated with Compound 1205 at 0.5 mg/kg were on study for 28 days, and mice treated with Compound 1205 at 3 mg/kg were on study for 32 days."}, "[3]": {"test": "Plasma trough levels in patients having a variety of cancers", "assay_type": "in vivo, human", "conditions": "combination therapy with Compound #10; in words"}}, "note": "Marks after values point to notes of the source that are not given here.", "data": [{"smiles": "O=C(Oc1ccc(Cl)cc1)N1CCc2c([nH]c3ccc(Cl)cc23)[C@@H]1c1ccc(OCC[C@H](O)CO)cc1", "note": "[Compound 1205]", "values": [{"measurement": "Lowest dose at which active", "setting": "HT1080 xenografts; HT1080 xenograft", "value": "≤ 0.3", "unit": "mg/kg"}, {"measurement": "Mean difference in tumor growth rate at the Day that the vehicle-treated tumors taken off study (%)", "setting": "HT1080 xenografts; Study 21, 0.5 mg/kg QD, Day 14", "value": 61, "unit": "%**"}, {"measurement": "Final mean terminal tumor size in treatment group (mm^3)", "setting": "HT1080 xenografts; Study 21, 0.5 mg/kg QD, administered 14 days", "value": 580, "unit": "mm^3"}, {"measurement": "Mean difference in tumor growth rate at the Day that the vehicle-treated tumors taken off study (%)", "setting": "HT1080 xenografts; Study 21, 3 mg/kg QD, Day 14", "value": 80, "unit": "%**"}, {"measurement": "Final mean terminal tumor size in treatment group (mm^3)", "setting": "HT1080 xenografts; Study 21, 3 mg/kg QD, administered 14 days", "value": 379, "unit": "mm^3"}, {"measurement": "Difference vs. vehicle in median number of days to reach 1000 mm^3,", "setting": "HT1080 xenografts; Study 22, 0.5 mg/kg QD", "value": 11, "unit": "days"}, {"measurement": "Mean difference in tumor growth rate at the Day that the vehicle-treated tumors taken off study (%)", "setting": "HT1080 xenografts; Study 22, 0.5 mg/kg QD, Day 11", "value": 62, "unit": "%**"}, {"measurement": "Final mean terminal tumor size in treatment group (mm^3)", "setting": "HT1080 xenografts; Study 22, 0.5 mg/kg QD, administered 28 days", "value": 1750, "unit": "mm^3"}, {"measurement": "Difference vs. vehicle in median number of days to reach 1000 mm^3, (Days)", "setting": "HT1080 xenografts; Study 22, 3 mg/kg QD", "value": "14** Days"}, {"measurement": "Mean difference in tumor growth rate at the Day that the vehicle-treated tumors taken off study (%)", "setting": "HT1080 xenografts; Study 22, 3 mg/kg QD, Day 11", "value": 75, "unit": "%**"}, {"measurement": "Final mean terminal tumor size in treatment group (mm^3)", "setting": "HT1080 xenografts; Study 22, 3 mg/kg QD, administered 32 days", "value": 1840, "unit": "mm^3"}, {"measurement": "Mean difference in tumor growth rate at the Day that the vehicle-treated tumors taken off study (%)", "setting": "HT1080 xenografts; Study 23, 1 mg/kg QD, Day 14", "value": 59, "unit": "%**"}, {"measurement": "Final mean terminal tumor size in treatment group (mm^3)", "setting": "HT1080 xenografts; Study 23, 1 mg/kg QD, administered 14 days", "value": 710, "unit": "mm^3"}, {"measurement": "Difference vs. vehicle in median number of days to reach 1000 mm^3, (Days)", "setting": "HT1080 xenografts; Study 24a, 10 mg/kg QD, Compound 1205 column", "value": "14** Days"}, {"measurement": "Mean difference in tumor growth rate at the Day that the vehicle-treated tumors taken off study (%)", "setting": "HT1080 xenografts; Study 24a, 10 mg/kg QD, Day 11, Compound 1205 column", "value": 76, "unit": "%**"}, {"measurement": "Final mean terminal tumor size in treatment group (mm^3)", "setting": "HT1080 xenografts; Study 24a, 10 mg/kg QD, administered 30 days", "value": 1400, "unit": "mm^3"}, {"measurement": "Difference vs. vehicle in median number of days to reach 1000 mm^3,", "setting": "HT1080 xenografts; Study 24b, 0.3 mg/kg QD", "value": 0.7, "unit": "days"}, {"measurement": "Mean difference in tumor growth rate at the Day that the vehicle-treated tumors taken off study (%)", "setting": "HT1080 xenografts; Study 24b, 0.3 mg/kg QD, Day 15", "value": 28, "unit": "%"}, {"measurement": "Final mean terminal tumor size in treatment group (mm^3)", "setting": "HT1080 xenografts; Study 24b, 0.3 mg/kg QD, administered 16 days", "value": 1540, "unit": "mm^3"}, {"measurement": "Growth of HT1080 tumors in vivo (FIG. 4)", "setting": "HT1080 xenografts; study #24a, 10 mg/kg QD, in words", "value": "significantly delayed growth of HT1080 tumor cells in vivo"}, {"measurement": "Bioavailability", "setting": "[1]", "value": "bioavailable in vivo"}, {"measurement": "Inhibition of stress-induced VEGF production (FIG. 1)", "setting": "[2]", "value": "inhibit stress-induced VEGF production"}, {"measurement": "EC50", "setting": "[2]; Homo sapiens, HeLa", "value": "< 8", "unit": "nM"}, {"measurement": "solubility", "setting": "Solubility in water", "value": "~1", "unit": "µg/mL"}, {"measurement": "Cell cycle distribution (relative DNA content, FIG. 5)", "setting": "HT1080 cells", "value": "induced a redistribution of the cycling characteristics of the cell population"}, {"measurement": "Inhibition of plasma VEGF levels", "setting": "human VEGF; 0.5 or 3 mg/kg QD", "value": "more than 95%"}, {"measurement": "Inhibition of tumor VEGF levels", "setting": "human VEGF; 0.5 or 3 mg/kg QD", "value": "more than 95%"}, {"measurement": "Mean difference in human plasma VEGF (%) on Day 14", "setting": "human VEGF; Study #21, 0.5 mg/kg QD", "value": 97, "unit": "%**"}, {"measurement": "Mean difference in human tumor VEGF (%) at Day 14", "setting": "human VEGF; Study #21, 0.5 mg/kg QD", "value": 95, "unit": "%**"}, {"measurement": "Mean difference in human plasma VEGF (%) on Day 14", "setting": "human VEGF; Study #21, 3 mg/kg QD", "value": 99, "unit": "%"}, {"measurement": "Mean difference in human tumor VEGF (%) at Day 14", "setting": "human VEGF; Study #21, 3 mg/kg QD", "value": 98, "unit": "%**"}, {"measurement": "Mean difference in human plasma VEGF (%) on Day 14", "setting": "human VEGF; Study #23, 1 mg/kg QD", "value": 100, "unit": "%**"}, {"measurement": "Mean difference in human tumor VEGF (%) at Day 14", "setting": "human VEGF; Study #23, 1 mg/kg QD", "value": "95** %"}, {"measurement": "Volume normalized intra-tumor VEGF levels", "setting": "human VEGF; treated groups vs vehicle, in words", "value": "significantly reduced"}, {"measurement": "Murine kidney VEGF levels (FIG. 6)", "setting": "murine kidney VEGF", "value": "did not significantly decrease murine kidney VEGF levels"}]}, {"smiles": "CC(=O)O[C@@]12CO[C@@H]1C[C@H](O)[C@@]1(C)C(=O)[C@H](O)C3=C(C)[C@@H](OC(=O)[C@H](O)[C@@H](NC(=O)OC(C)(C)C)c4ccccc4)C[C@@](O)([C@@H](OC(=O)c4ccccc4)[C@H]21)C3(C)C", "note": "[docetaxel]", "values": [{"measurement": "PK profile (FIG. 18)", "setting": "[3]", "value": "consistent with historical data"}]}]}
